The values that follow come from patent US9328099B2, “Cyanomethylpyrazole carboxamides as janus kinase inhibitors” (Merck Sharp & Dohme Corp., priority 2011, dated 2016).

Like-named read-outs stand apart in the source and are kept apart here.

The target of one experiment is JAK1 (Homo sapiens (Human), UniProt P23458). Put plainly: Jak Biochemical HTRF Assay, JAK1. The source says:
(§1) Jak Biochemical HTRF Assay Protocol
(§2) Subsequent reagent additions employed an Agilent Bravo.
(In general: Time-resolved FRET reads energy transfer from a long-lived donor to a nearby acceptor.)

For another experiment, the target named is JAK2 (Homo sapiens (Human), UniProt O60674). Put plainly: Jak Biochemical HTRF Assay, JAK2. The note with it: HTRF biochemical assay, GST-tagged catalytic domain; top concentration tested […].
JAK2, sequence (O60674 849-1124): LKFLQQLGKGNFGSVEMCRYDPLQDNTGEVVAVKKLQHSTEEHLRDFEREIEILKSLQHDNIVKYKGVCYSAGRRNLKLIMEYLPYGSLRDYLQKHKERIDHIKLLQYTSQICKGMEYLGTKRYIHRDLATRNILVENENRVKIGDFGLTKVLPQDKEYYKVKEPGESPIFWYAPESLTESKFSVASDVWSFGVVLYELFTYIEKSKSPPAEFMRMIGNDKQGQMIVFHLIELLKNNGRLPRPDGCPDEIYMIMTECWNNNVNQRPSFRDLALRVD
Source text: as §1, §2

Setting [1] is: HTRF biochemical assay, GST-tagged catalytic domain, top concentration tested […], read-out: JAK1 IC50.

JAK1, sequence (P23458 875-1153): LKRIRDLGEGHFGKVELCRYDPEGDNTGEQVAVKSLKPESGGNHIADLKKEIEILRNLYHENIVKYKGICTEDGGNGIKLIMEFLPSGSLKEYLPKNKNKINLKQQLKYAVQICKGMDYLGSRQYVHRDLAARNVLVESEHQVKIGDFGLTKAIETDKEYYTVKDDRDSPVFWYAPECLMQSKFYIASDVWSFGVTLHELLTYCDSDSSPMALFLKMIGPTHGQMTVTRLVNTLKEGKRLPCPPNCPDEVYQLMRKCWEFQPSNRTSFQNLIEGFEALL

One may read the IC50 as the point on the concentration scale where inhibition reaches its midpoint. Turning to `N#CCC1(n2cc(C(N)=O)c(Nc3ccc(F)cc3)n2)CCC(NCc2ccccc2)CC1` (stereo not drawn) [Example 40-92, Cis or trans 1-[4-(benzylamino)-1-(cyanomethyl)cyclohexyl]-3-[(4-fluorophenyl)amino]-1H-pyrazole-4-carboxamide], the IC50 turned out to be 0.04 nM at JAK1 (setting [1]) and 0.2 nM against JAK2.

Consider `N#CCC1(n2cc(C(N)=O)c(Nc3ccnc(F)c3)n2)CCC(NCC(F)(F)F)CC1` (stereo not drawn) [Example 40-93, Cis or trans 1-{1-(cyanomethyl)-4-[(2,2,2-trifluoroethyl)amino]cyclohexyl}-3-[(2-fluoropyridin-4-yl)amino]-1H-pyrazole-4-carboxamide], for which the IC50 at JAK1 (setting [1]) is 166 nM; at JAK2, above 1500 nM.

As to `COC1CN(C2CCC(CC#N)(n3cc(C(N)=O)c(Nc4ccnc(F)c4)n3)CC2)C1` (stereo not drawn) [Example 40-94, Cis or trans 1-[1-(cyanomethyl)-4-(3-methoxyazetidin-1-yl)cyclohexyl]-3-[(2-fluoropyridin-4-yl)amino]-1H-pyrazole-4-carboxamide], the IC50 at JAK1 (setting [1]) is 234 nM; against JAK2 it was above 1500 nM.

Turning to `N#CCC1(n2cc(C(N)=O)c(Nc3ccnc(F)c3)n2)CCC(NCC(F)(F)F)CC1` (stereo not drawn) [Example 40-95, Cis or trans 1-{1-(cyanomethyl)-4-[(2,2,2-trifluoroethyl)amino]cyclohexyl}-3-[(2-fluoropyridin-4-yl)amino]-1H-pyrazole-4-carboxamide], the IC50 at JAK1 (setting [1]) came out at 28 nM; at JAK2 it was 794 nM.

In the case of `N#CCC1(n2cc(C(N)=O)c(Nc3ccc(F)cc3)n2)CCC(Nc2ccccc2)CC1` (stereo not drawn) [Example 40-96, Cis or trans 1-[1-(cyanomethyl)-4-(phenylamino)cyclohexyl]-3-[(4-fluorophenyl)amino]-1H-pyrazole-4-carboxamide], the results for the IC50 on JAK1 (setting [1]) and against JAK2 were 0.09 nM and 2 nM, respectively.

Take `N#CCC1(n2cc(C(N)=O)c(Nc3ccc(S(=O)(=O)C(F)F)cc3)n2)CCC(NCC(F)F)CC1` (stereo not drawn) [Example 40-99, Cis or trans 1-{1-(cyanomethyl)-4-[(2,2-difluoroethyl)amino]cyclohexyl}-3-({4-[(difluoromethyl)sulfonyl]phenyl}amino)-1H-pyrazole-4-carboxamide]: the results for the IC50 at JAK1 (setting [1]) and against JAK2 were 506 nM and above 1500 nM, respectively.

`N#CCC1(n2cc(C(N)=O)c(Nc3ccc(F)cc3)n2)CCC(N2CC(F)C2)CC1` (stereo not drawn) [Example 40-100, Cis or trans 1-[1-(cyanomethyl)-4-(3-fluoroazetidin-1-yl)cyclohexyl]-3-[(4-fluorophenyl)amino]-1H-pyrazole-4-carboxamide]: the IC50 on JAK1 (setting [1]) came out at 18 nM; against JAK2 it was 216 nM.

With `N#CCC1(n2cc(C(N)=O)c(Nc3ccc(S(=O)(=O)C(F)F)cc3)n2)CCC(Nc2ccccc2)CC1` (stereo not drawn) [Example 40-102, Cis or trans 1-[1-(cyanomethyl)-4-(phenylamino)cyclohexyl]-3-({4-[(difluoromethyl)sulfonyl]phenyl}amino)-1H-pyrazole-4-carboxamide], the IC50 at JAK1 (setting [1]) amounted to 0.05 nM; against JAK2 it was 1 nM.

As to `N#CCC1(n2cc(C(N)=O)c(Nc3ccc(F)cc3)n2)CCC(Nc2ccccc2)CC1` (stereo not drawn) [Example 40-103, Cis or trans 1-[1-(cyanomethyl)-4-(phenylamino)cyclohexyl]-3-[(4-fluorophenyl)amino]-1H-pyrazole-4-carboxamide], the IC50 is 0.1 nM on JAK1 (setting [1]) and 3 nM against JAK2.

Turning to `N#CCC1(n2cc(C(N)=O)c(Nc3ccnc(F)c3)n2)CCC(N2CC(F)C2)CC1` (stereo not drawn) [Example 40-104, Cis or trans 1-[1-(cyanomethyl)-4-(3-fluoroazetidin-1-yl)cyclohexyl]-3-[(2-fluoropyridin-4-yl)amino]-1H-pyrazole-4-carboxamide], the IC50 turned out to be 0.2 nM on JAK1 (setting [1]) and 11 nM at JAK2.

As to `N#CCC1(n2cc(C(N)=O)c(Nc3ccnc(F)c3)n2)CCC(NCC(F)F)CC1` (stereo not drawn) [Example 40-106, Cis or trans 1-{1-(cyanomethyl)-4-[(2,2-difluoroethyl)amino]cyclohexyl}-3-[(2-fluoropyridin-4-yl)amino]-1H-pyrazole-4-carboxamide], the IC50 on JAK1 (JAK1 IC50) turned out to be 4 nM; against JAK2 it was 31 nM.

As to `N#CC[C@]1(n2cc(C(N)=O)c(Nc3ccc(F)cc3)n2)CC[C@@H](NCc2ccccc2)CC1` [Example 40-108, 1-[cis-4-(benzylamino)-1-(cyanomethyl)cyclohexyl]-3-[(4-fluorophenyl)amino]-1H-pyrazole-4-carboxamide], the IC50 at JAK1 (setting [1]) was 0.09 nM; on JAK2, 2 nM.

Turning to `N#CC[C@]1(n2cc(C(N)=O)c(Nc3ccnc(F)c3)n2)CC[C@H](NCc2ccc(F)cc2F)CC1` [Example 41-1, Trans 1-(1-(cyanomethyl)-4-((2,4-difluorobenzyl)amino)cyclohexyl)-3-((2-fluoropyridin-4-yl)amino)-1H-pyrazole-4-carboxamide], the IC50 on JAK1 (setting [1]) is 8 nM; against JAK2, 218 nM.

For `N#CC[C@]1(n2cc(C(N)=O)c(Nc3ccc(S(=O)(=O)C(F)F)cc3)n2)CC[C@H](N)CC1` [Example 41-2], the IC50 on JAK1 (setting [1]) was 86 nM; at JAK2 it was above 1500 nM.

As for `N#CC[C@]1(n2cc(C(N)=O)c(Nc3ccc(S(=O)(=O)C(F)F)cc3)n2)CC[C@H](N)CC1` [Example 41-3], the IC50 on JAK1 (setting [1]) was found to be 1 nM; at JAK2 it was 33 nM.

With `N#CCC1(n2cc(C(N)=O)c(Nc3ccnc(F)c3)n2)CCC(NCc2ccc(F)cc2F)CC1` (stereo not drawn) [Example 41-4, Cis or trans 1-{1-(cyanomethyl)-4-[(2,4-difluorobenzyl)amino]cyclohexyl}-3-[(2-fluoropyridin-4-yl)amino]-1H-pyrazole-4-carboxamide], the IC50 at JAK1 (setting [1]) came out at 0.09 nM; at JAK2 it was 2 nM.

Turning to `N#CCC1(n2cc(C(N)=O)c(Nc3ccnc(F)c3)n2)CCC(NCc2ccc(C#N)cc2)CC1` (stereo not drawn) [Example 41-6, Cis or trans 1-{4-[(4-cyanobenzyl)amino]-1-(cyanomethyl)cyclohexyl}-3-[(2-fluoropyridin-4-yl)amino]-1H-pyrazole-4-carboxamide], the IC50 was 23 nM on JAK1 (setting [1]) and 851 nM at JAK2.

On to `N#CCC1(n2cc(C(N)=O)c(Nc3ccnc(F)c3)n2)CCC(NCc2ccccc2O)CC1` (stereo not drawn) [Example 41-7, Cis or trans 1-{1-(cyanomethyl)-4-[(2-hydroxybenzyl)amino]cyclohexyl}-3-[(2-fluoropyridin-4-yl)amino]-1H-pyrazole-4-carboxamide], for which the IC50 was 12 nM on JAK1 (setting [1]) and 468 nM at JAK2.

For `N#CCC1(n2cc(C(N)=O)c(Nc3ccnc(F)c3)n2)CCC(NCC2CCCCC2)CC1` (stereo not drawn) [Example 41-8, Trans 1-{1-(cyanomethyl)-4-[(cyclohexylmethyl)amino]cyclohexyl}-3-[(2-fluoropyridin-4-yl)amino]-1H-pyrazole-4-carboxamide], the figures for the IC50 on JAK1 (setting [1]) and on JAK2 were 0.8 nM and 153 nM, respectively.

Take `N#CCC1(n2cc(C(N)=O)c(Nc3ccnc(F)c3)n2)CCC(NCc2ccc(Cl)cc2)CC1` (stereo not drawn) [Example 41-9, Cis or trans 1-{4-[(4-chlorobenzyl)amino]-1-(cyanomethyl)cyclohexyl}-3-[(2-fluoropyridin-4-yl)amino]-1H-pyrazole-4-carboxamide]: the IC50 at JAK1 (setting [1]) came out at 15 nM; at JAK2, 440 nM.
